Results reported in patent US20080004253A1, “Thiazolopyrimidine modulators of TRPV1” (priority 2006, published 2008).

Key:
human TRPV1 = molecular target: T1, human TRPV1 (Homo sapiens, UniProt Q8NER1); test: Functional assay: block of capsaicin-induced Ca2+ influx, human assay (hTRPV1/HEK293, FLIPR); type: cell-based; settings: hTRPV1/HEK293 cells, 150 nM capsaicin challenge, Fluo-3 fluorescence; mean; > value = solubility limit in assay medium
T1 construct: expressed in transfected cells; host or cells: HEK293 (hTRPV1/HEK293), zeocin selection
T1 sequence (Q8NER1 whole entry): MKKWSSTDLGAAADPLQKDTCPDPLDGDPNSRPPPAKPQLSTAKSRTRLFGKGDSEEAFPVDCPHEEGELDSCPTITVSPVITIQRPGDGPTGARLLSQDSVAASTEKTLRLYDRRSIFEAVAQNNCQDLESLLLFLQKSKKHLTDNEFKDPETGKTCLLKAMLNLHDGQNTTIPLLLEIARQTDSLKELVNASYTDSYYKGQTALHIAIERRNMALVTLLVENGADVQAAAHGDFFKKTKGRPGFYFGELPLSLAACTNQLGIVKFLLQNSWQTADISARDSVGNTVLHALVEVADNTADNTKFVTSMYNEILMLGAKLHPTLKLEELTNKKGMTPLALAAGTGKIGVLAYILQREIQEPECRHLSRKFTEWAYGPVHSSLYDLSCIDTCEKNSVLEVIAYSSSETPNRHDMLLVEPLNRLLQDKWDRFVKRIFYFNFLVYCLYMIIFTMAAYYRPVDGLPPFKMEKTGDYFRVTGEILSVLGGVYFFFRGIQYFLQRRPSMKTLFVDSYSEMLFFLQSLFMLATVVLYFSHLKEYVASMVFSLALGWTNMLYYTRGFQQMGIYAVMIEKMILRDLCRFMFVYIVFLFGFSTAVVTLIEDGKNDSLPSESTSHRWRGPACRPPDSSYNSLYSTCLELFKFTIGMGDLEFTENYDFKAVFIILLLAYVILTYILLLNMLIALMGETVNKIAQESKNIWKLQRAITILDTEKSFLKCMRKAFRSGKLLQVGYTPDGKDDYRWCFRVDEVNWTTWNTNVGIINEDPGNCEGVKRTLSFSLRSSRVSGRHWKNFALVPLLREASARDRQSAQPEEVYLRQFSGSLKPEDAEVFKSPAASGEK
Summary of the method: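 HEK293 cells stably expressing human TRPV1, fluo3-loaded, preincubated 30 min with compound (serial 3-fold dilutions from 10 μM, duplicate) in 20 μM Ca2+ buffer. Capsaicin response taken as fluo3 fluorescence change before vs 100 s after agonist; IC50 by non-linear regression, mean values; free base or TFA salt.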

rat TRPV1 = molecular target: T2, rat TRPV1 (Rattus norvegicus, UniProt O35433); test: Functional assay: block of capsaicin-induced Ca2+ influx, rat assay (rTRPV1/HEK293, FLIPR); type: cell-based; settings: rTRPV1/HEK293 cells, capsaicin challenge, Fluo-3 fluorescence; mean; > value = solubility limit in assay medium
T2 construct: expressed in transfected cells; host or cells: HEK293 (rTRPV1/HEK293), geneticin selection
T2 sequence (O35433 whole entry): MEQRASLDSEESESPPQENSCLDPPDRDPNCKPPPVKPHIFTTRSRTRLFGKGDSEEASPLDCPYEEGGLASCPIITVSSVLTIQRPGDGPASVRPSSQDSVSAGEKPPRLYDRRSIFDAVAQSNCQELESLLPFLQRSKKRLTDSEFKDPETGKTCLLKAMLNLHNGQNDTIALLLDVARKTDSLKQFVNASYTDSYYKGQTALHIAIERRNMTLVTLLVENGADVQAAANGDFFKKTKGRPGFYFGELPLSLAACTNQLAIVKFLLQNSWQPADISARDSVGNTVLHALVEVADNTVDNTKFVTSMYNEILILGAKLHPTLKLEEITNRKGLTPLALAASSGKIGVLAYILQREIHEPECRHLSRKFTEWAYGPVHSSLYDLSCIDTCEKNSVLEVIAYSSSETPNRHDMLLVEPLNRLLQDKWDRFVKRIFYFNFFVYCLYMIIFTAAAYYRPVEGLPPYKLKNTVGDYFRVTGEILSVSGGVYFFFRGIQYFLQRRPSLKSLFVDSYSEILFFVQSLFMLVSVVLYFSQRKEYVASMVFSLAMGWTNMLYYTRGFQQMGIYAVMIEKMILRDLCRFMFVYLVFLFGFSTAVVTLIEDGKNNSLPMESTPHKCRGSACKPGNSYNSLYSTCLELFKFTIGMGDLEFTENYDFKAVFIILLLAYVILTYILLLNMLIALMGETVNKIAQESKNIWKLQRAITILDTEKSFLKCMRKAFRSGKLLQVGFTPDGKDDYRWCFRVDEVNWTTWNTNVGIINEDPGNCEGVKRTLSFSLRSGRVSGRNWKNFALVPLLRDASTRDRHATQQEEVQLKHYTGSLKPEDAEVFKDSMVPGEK
Summary of the method: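 HEK293 cells expressing rat TRPV1, loaded with fluo3 and preincubated 30 min with compound in 20 μM Ca2+ buffer before capsaicin challenge. Block read as fluo3 fluorescence change over 100 s after agonist, 3-fold series from 10 μM in duplicate. IC50 by non-linear regression, mean values.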

| IC50 (human TRPV1) | IC50 (rat TRPV1) | Structure (SMILES) |
| --- | --- | --- |
| 0.015 µM | 0.008 µM | FC(F)(F)c1ccc(Nc2ncnc3sc(Nc4c(Cl)cccc4Cl)nc23)cc1Cl [Example 4, N^7-(3-Chloro-4-trifluoromethyl-phenyl)-N^2-(2,6-dichloro-phenyl)-thiazolo[5,4-d]pyrimidine-2,7-diamine] |
| 0.015 µM | 0.007 µM | Cc1cccc(C)c1Nc1nc2c(Nc3ccc(S(=O)(=O)N(C)C)cc3)ncnc2s1 [Example 98, 4-[2-(2,6-Dimethyl-phenylamino)-thiazolo[5,4-d]pyrimidin-7-ylamino]-N,N-dimethyl-benzenesulfonamide] |
| > 6.67 µM | > 6.67 µM | Cc1cccc(C)c1Nc1nc2c(Nc3ccc(Cl)c(Cl)c3)ncnc2s1 [Example 34, N^7-(3,4-Dichloro-phenyl)-N^2-(2,6-dimethyl-phenyl)-thiazolo[5,4-d]pyrimidine-2,7-diamine] |
| > 6.67 µM | > 6.67 µM | Cc1nc(Nc2ccc(N(S(C)(=O)=O)S(C)(=O)=O)cc2)c2nc(Nc3c(Cl)cccc3Cl)sc2n1 [Example 173, N-{4-[2-(2,6-Dichloro-phenylamino)-5-methyl-thiazolo[5,4-d]pyrimidin-7-ylamino]-phenyl}-dimethanesulfonamide] |
| 0.063 µM | 0.022 µM | FC(F)(F)c1ccc(Nc2nc(N3CCC3)nc3sc(Nc4c(Cl)cccc4Cl)nc23)cc1 [Example 59, 5-Azetidin-1-yl-N^2-(2,6-dichloro-phenyl)-N^7-(4-trifluoromethyl-phenyl)-thiazolo[5,4-d]pyrimidine-2,7-diamine] |
| 0.056 µM | 0.018 µM | CC(C)C1CCCN1c1nc(Nc2ccc(C(F)(F)F)c(Cl)c2)c2nc(Nc3c(Cl)cccc3Cl)sc2n1 (racemic) [Example 118, (racemic)-N^7-(3-Chloro-4-trifluoromethyl-phenyl)-N^2-(2,6-dichloro-phenyl)-5-(2-isopropyl-pyrrolidin-1-yl)-thiazolo[5,4-d]pyrimidine-2,7-diamine] |
| ≥ 6.67 µM | ≥ 6.67 µM | Cc1nc(Nc2ccc(C(F)(F)F)cc2)c2nc(Nc3ncccc3C)sc2n1 [Example 211, 5-Methyl-N^2-(3-methyl-pyridin-2-yl)-N^7-(4-trifluoromethyl-phenyl)-thiazolo[5,4-d]pyrimidine-2,7-diamine] |
| 0.0033 µM | 0.0007 µM | C[C@@H](O)CNc1nc(Nc2ccc(C(F)(F)F)cc2)c2nc(Nc3c(Cl)cccc3Cl)sc2n1 [Example 250, (R)-1-[2-(2,6-Dichloro-phenylamino)-7-(4-trifluoromethyl-phenylamino)-thiazolo[5,4-d]pyrimidin-5-ylamino]-propan-2-ol] |
| 0.419 µM | 0.319 µM | CSc1ccccc1Nc1nc2c(Nc3ccc(C(F)(F)F)cc3)nc(C)nc2s1 [Example 195, 5-Methyl-N^2-(2-methylsulfanyl-phenyl)-N^7-(4-trifluoromethyl-phenyl)-thiazolo[5,4-d]pyrimidine-2,7-diamine] |
| 0.008 µM | 0.002 µM | Cc1nc(Nc2ccc(S(=O)(=O)N3CCCC3)cc2)c2nc(Nc3c(C)cccc3C)sc2n1 [Example 92, N^2-(2,6-Dimethyl-phenyl)-5-methyl-N^7-[4-(pyrrolidine-1-sulfonyl)-phenyl]-thiazolo[5,4-d]pyrimidine-2,7-diamine] |
| 0.02 µM | 0.033 µM | Cc1nc(Nc2ccc(SC(C)C)cc2)c2nc(Nc3c(Cl)cccc3Cl)sc2n1 [Example 103, N^2-(2,6-Dichloro-phenyl)-N^7-(4-isopropylsulfanyl-phenyl)-5-methyl-thiazolo[5,4-d]pyrimidine-2,7-diamine] |
| 13.6 µM | > 20 µM | CN[C@@H]1CCN(c2nc(Nc3ccc(C(F)(F)F)cc3)c3nc(Nc4c(Cl)cccc4Cl)sc3n2)C1 [Example 183, (3R)-N^2-(2,6-Dichloro-phenyl)-5-(3-methylamino-pyrrolidin-1-yl)-N^7-(4-trifluoromethyl-phenyl)-thiazolo[5,4-d]pyrimidine-2,7-diamine] |
| 6.51 µM | 0.626 µM | Cc1nc(Nc2ccc(N(C)S(C)(=O)=O)cc2)c2nc(Nc3c(C)cccc3C)sc2n1 [Example 164, N-{4-[2-(2,6-Dimethyl-phenylamino)-5-methyl-thiazolo[5,4-d]pyrimidin-7-ylamino]-phenyl}-N-methyl-methanesulfonamide] |
| 0.017 µM | 0.004 µM | Cc1cccc(C)c1Nc1nc2c(Nc3ccc(S(=O)(=O)C(F)(F)F)cc3)ncnc2s1 [Example 99, N^2-(2,6-Dimethyl-phenyl)-N^7-(4-trifluoromethanesulfonyl-phenyl)-thiazolo[5,4-d]pyrimidine-2,7-diamine] |
| 0.646 µM | 0.319 µM | OCC1CN(c2nc(Nc3ccc(C(F)(F)F)cc3)c3nc(Nc4c(Cl)cccc4Cl)sc3n2)CCO1 (racemic) [Example 146, (racemic)-{4-[2-(2,6-Dichloro-phenylamino)-7-(4-trifluoromethyl-phenylamino)-thiazolo[5,4-d]pyrimidin-5-yl]-morpholin-2-yl}-methanol] |
| 0.421 µM | 0.068 µM | Cc1noc(C)c1Nc1nc2c(Nc3ccc(C(F)(F)F)cc3)ncnc2s1 [Example 25, N^2-(3,5-Dimethyl-isoxazol-4-yl)-N^7-(4-trifluoromethyl-phenyl)-thiazolo[5,4-d]pyrimidine-2,7-diamine] |
| 0.002 µM | 0.001 µM | CC(C)CNc1nc(Nc2ccc(C(F)(F)F)cc2)c2nc(Nc3c(Cl)cccc3Cl)sc2n1 [Example 79, N^2-(2,6-Dichloro-phenyl)-N^5-isobutyl-N^7-(4-trifluoromethyl-phenyl)-thiazolo[5,4-d]pyrimidine-2,5,7-triamine] |
| > 6.67 µM | > 6.67 µM | Cc1ccc(Nc2ncnc3sc(Nc4c(C)cccc4C)nc23)cc1C [Example 165, N^2-(2,6-Dimethyl-phenyl)-N^7-(3,4-dimethyl-phenyl)-thiazolo[5,4-d]pyrimidine-2,7-diamine] |
| 1.08 µM | 0.271 µM | Cc1noc(C)c1Nc1nc2c(Nc3ccc(S(=O)(=O)N4CCOCC4)cc3)ncnc2s1 [Example 221, N^2-(3,5-Dimethylisoxazol-4-yl)-N^7-[4-(morpholin-4-ylsulfonyl)phenyl][1,3]thiazolo[5,4-d]pyrimidine-2,7-diamine] |
| 0.012 µM | 0.003 µM | Cc1nc(Nc2ccc(C(C)(C)C)cc2)c2nc(Nc3c(C)cccc3C)sc2n1 [Example 244, N^7-(4-tert-Butyl-phenyl)-N^2-(2,6-dimethyl-phenyl)-5-methyl-thiazolo[5,4-d]pyrimidine-2,7-diamine] |
| 0.022 µM | 0.007 µM | Cc1cccc(C)c1Nc1nc2c(Nc3ccc(S(=O)(=O)N4CCCC4)cc3)ncnc2s1 [Example 104, N^2-(2,6-Dimethyl-phenyl)-N^7-[4-(pyrrolidine-1-sulfonyl)-phenyl]-thiazolo[5,4-d]pyrimidine-2,7-diamine] |
| 0.207 µM | 0.178 µM | Cc1cccc(C)c1Nc1nc2c(Nc3ccc(C#N)nc3)ncnc2s1 [Example 29, 5-[2-(2,6-Dimethyl-phenylamino)-thiazolo[5,4-d]pyrimidin-7-ylamino]-pyridine-2-carbonitrile] |
| 0.051 µM | 0.008 µM | Cc1cccc(C)c1Nc1nc2c(Nc3ccc(C(C)(C)C#N)cc3)ncnc2s1 [Example 32, 2-{4-[2-(2,6-Dimethyl-phenylamino)-thiazolo[5,4-d]pyrimidin-7-ylamino]-phenyl}-2-methyl-propionitrile] |
| 16.6 µM | 12.5 µM | Cc1nc(Nc2ccc(C(F)(F)F)cc2)c2nc(Nc3cccc4nsnc34)sc2n1 [Example 205, N^2-Benzo[1,2,5]thiadiazol-4-yl-5-methyl-N^7-(4-trifluoromethyl-phenyl)-thiazolo[5,4-d]pyrimidine-2,7-diamine] |
| 0.036 µM | 0.04 µM | CCN(CC)c1nc(Nc2ccc(C(F)(F)F)cc2)c2nc(Nc3c(Cl)cccc3Cl)sc2n1 [Example 188, N^2-(2,6-Dichloro-phenyl)-N^5,N^5-diethyl-N^7-(4-trifluoromethyl-phenyl)-thiazolo[5,4-d]pyrimidine-2,5,7-triamine] |
| 0.115 µM | 0.038 µM | CS(=O)(=O)c1ccc(Nc2ncnc3sc(Nc4c(Cl)cc(C#N)cc4Cl)nc23)cc1 [Example 236, 3,5-Dichloro-4-[7-(4-methanesulfonyl-phenylamino)-thiazolo[5,4-d]pyrimidin-2-ylamino]-benzonitrile] |
| 4.61 µM | 6.54 µM | O=C(O)c1cc(Cl)c(Nc2nc3c(Nc4ccc(C(F)(F)F)cc4)ncnc3s2)c(Cl)c1 [Example 243, 3,5-Dichloro-4-[7-(4-trifluoromethyl-phenylamino)-thiazolo[5,4-d]pyrimidin-2-ylamino]-benzoic acid] |
| > 6.67 µM | 2.68 µM | FC(F)(F)c1ccc(Nc2ncnc3sc(Nc4ccccc4)nc23)cc1 [Example 20, N^2-Phenyl-N^7-(4-trifluoromethyl-phenyl)-thiazolo[5,4-d]pyrimidine-2,7-diamine] |
| 0.35 µM | 0.223 µM | Cc1nc(Nc2ccccc2)c2nc(Nc3c(C)cccc3C)sc2n1 [Example 141, N^2-(2,6-Dimethyl-phenyl)-5-methyl-N^7-phenyl-thiazolo[5,4-d]pyrimidine-2,7-diamine] |

| Structure (SMILES) | IC50 (human TRPV1) | IC50 (rat TRPV1) |
| --- | --- | --- |
| CCCCOc1nc(Nc2ccc(C(F)(F)F)cc2)c2nc(Nc3c(Cl)cccc3Cl)sc2n1 [Example 189, 5-Butoxy-N^2-(2,6-dichloro-phenyl)-N^7-(4-trifluoromethyl-phenyl)-thiazolo[5,4-d]pyrimidine-2,7-diamine] | 0.019 µM | 0.008 µM |
